Molecules are shown by their SMILES. Values after ≈ are worked out from the molar mass of the structure shown. Where two headings read alike, the source gives them in different places.

Series [1] is described as follows: Dissolution and stability test in buffer solution. The format is physicochemical. The following applies: for Appearance of solution after storage for 48 hours: 100 µM, room temperature; for Absorbance change (stability) up to 3 hours: aqueous solution, light exposure, ambient temperature, especially pH 1.0. As for the experimental part: Each solution in the respected buffer was then evaluated for its stability at ambient temperature and light exposure. It measured the absorbance change at 428, 416, and 404 nm, subsequently over a time-course using a UV-1800 spectrophotometer (Shimadzu, Japan).

The test system of a further series is MCF-7/HER2 cells. The series can be described thus: Cell viability assay (trypan blue exclusion or MTT). The following applies: Homo sapiens, MCF7; MCF-7/HER2, 24 hours treatment; read-out: IC 50 value. The format is cell-based. The source says:
(§1) MCF-7/HER2 and MCF-7/EV are HER2 and empty vector-transfected MCF-7 cells obtained from Prof. Yoshio Inouye (Department of Surgery, Toho University School of Medicine, Japan) through Prof. Masashi Kawaichi (Laboratory of Gene Function in Animals, NAIST, Japan). The cells of 4T1, NIH-3T3, and T47D were kindly provided by Prof. Masashi Kawaichi (Laboratory of Gene Function in Animals, NAIST, Japan). K652 cells are the collection from the Laboratory of Tumor Cell Biology, Nara Institute of Science and Technology, Japan. HCC1954 and Caco2 cell lines were given by Dr. dr. Muhammad Hasan Bashari (Faculty of Medicine, Universitas Padjajaran, Indonesia). WiDr cell line was obtained from the Faculty of Medicine, Public Health, and Nursing Universitas Gadjah Mada, Indonesia. Briefly, MCF-7/HER2, MCF-7, NIH-3T3, T47D, MCF-7/EV, and 4T1 cells were cultured in Dulbecco’s Modified Eagles Medium (DMEM) high glucose (Gibco, USA), whereas HCC1954, Caco2, WiDr, K562 cells were grown in Rosewell Park Memorial Institute (RPMI) Medium. Both were supplemented with 10% (v/v) fetal bovine serum (Gibco, USA), HEPES (Sigma, USA), sodium bicarbonate (Sigma, USA), 150 IU/mL penicillin and 150 µg/mL streptomycin (Gibco) and 1.25 µg/mL amphotericin B (Gibco, USA). The cells were maintained at 37 °C with 5% CO2 in a humidified atmosphere.
(§2) Cells were grown in 24 or 96-well microplate and then cultured for 24 h. Subsequently, cells were treated with PGV-1 or CCA-1.1 at concentration series up to 10 µM, except for NIH-3T3 up to 100 µM and incubated for 24 hours. Untreated cells were used as control. After treatment, viable cells were enumerated using the trypan blue exclusion or quantified under MTT assay. The viable cells were represented as % cell viability vs. concentration of the sample, and the IC50 value or the concentration that inhibits 50% of cell growth was calculated.
(§3) Molecular docking results were validated by determining the RMSD value of conformation bearing the lowest docking score representing the ∆G (kkal/mol). The validity of the molecular docking method was represented as RMSD value < 2. Cytotoxic potencies against several cell lines were statistically analyzed based on the IC50 values through linear regression with a P value of […].

Another series concerns T47D cells. The description is as above. The format is cell-based. The settings on record: Homo sapiens, 24 hours treatment, read-out: IC 50 value.
Excerpt: as §1, §2, §3

The next series deals with HCC1954 cells. The series is described as above. The following applies: Homo sapiens; HCC1954, 24 hours treatment; read-out: IC 50 value. Format: cell-based.
Excerpt: as §1, §2, §3

For a further series, the system named is NIH-3T3 cells. The series is described as above. The following applies: Mus musculus, NIH3T3; NIH-3T3 (non-cancerous), concentrations up to 100 µM, 24 hours; read-out: IC 50 value. Format: cell-based.
Excerpt: as §1, §2, §3

Another series relates to WiDr cells. Described as above. The following applies: Homo sapiens, 24 hours treatment, read-out: IC 50 value. Format: cell-based.
Excerpt: as §1, §2, §3

A further series deals with MCF-7/EV cells. The series is described as above. Format: cell-based. The settings on record: Homo sapiens, MCF7, 24 hours treatment, read-out: IC 50 value.
Excerpt: as §1, §2, §3

The test system of series [2] is MCF-7 cells. The series is described as above. Format: cell-based. The following applies: Homo sapiens, MCF7; MCF-7, 24 hours treatment; read-out: IC 50 value.
Excerpt: as §1, §2, §3

In another series the test system is Caco2 cells. Described as above. The settings on record: Homo sapiens, Caco-2; Caco2, 24 hours treatment; read-out: IC 50 value. The format is cell-based.
Excerpt: as §1, §2, §3

The test system of series [3] is 4T1 cells. The series is described as above. The format is cell-based. The following applies: Mus musculus; 4T1, 24 hours treatment; read-out: IC 50 value.
Excerpt: as §1, §2, §3

The test system of series [4] is K562 cells. The description is as above. Format: cell-based, human. The source says: (§4) MCF-7/HER2 and MCF-7/EV are HER2 and empty vector-transfected MCF-7 cells obtained from Prof. Yoshio Inouye (Department of Surgery, Toho University School of Medicine, Japan) through Prof. Masashi Kawaichi (Laboratory of Gene Function in Animals, NAIST, Japan). The cells of 4T1, NIH-3T3, and T47D were kindly provided by Prof. Masashi Kawaichi (Laboratory of Gene Function in Animals, NAIST, Japan). K652 cells are the collection from the Laboratory of Tumor Cell Biology, Nara Institute of Science and Technology, Japan. HCC1954 and Caco2 cell lines were given by Dr. dr. Muhammad Hasan Bashari (Faculty of Medicine, Universitas Padjajaran, Indonesia). WiDr cell line was obtained from the Faculty of Medicine, Public Health, and Nursing Universitas Gadjah Mada, Indonesia. […]
(§5) Cells were grown in 24 or 96-well microplate and then cultured for 24 h. […] After treatment, viable cells were enumerated using the trypan blue exclusion or quantified under MTT assay. […]
(§6) Molecular docking results were validated by determining the RMSD value of conformation bearing the lowest docking score representing the ∆G (kkal/mol). […] Cytotoxic potencies against several cell lines were statistically analyzed based on the IC50 values through linear regression with a P value of […].

In series [5] the test system is several cancer cell lines. The series can be described thus: Cytotoxic assay on several cancer cell lines (summary statement). The settings on record: several cancer cell lines (Table 3). Format: cell-based.
Excerpt: as §4, §5, §6

In series [6] the test system is MCF-7 cells. Further details: method as in PMID 31548601. The settings on record: read-out: IC 50 value; cited from earlier work.
Series [7] has as its system K562 cells. Further details: method as in PMID 31619723. The following applies: read-out: IC 50 value; cited from earlier work.
For series [8], the system named is 4T1 cells. The following applies: read-out: IC 50 value; cited from earlier work.
The conditions of series [9]: aqueous; cited from earlier work.

Take `Cc1cc(C=C2CCC(=Cc3cc(C)c(O)c(C)c3)C2O)cc(C)c1O` (centres unmarked) [CCA-1.1, 2,5-bis(4-hydroxy-3,5-dimethylbenzylidene)cyclopentanol]: the “Appearance of solution after storage for 48 hours” value in [1] is listed as “still looked clear”. For the same compound, the “Absorbance change (stability) up to 3 hours” value (shortened to “Absorbance change”) in series [1] was “unchanged absorbance up to 3 hours”. For the same compound, the “Solubility compared at a concentration of 100 µM” value in series [1] (distilled water, buffer pH 1.0 and pH 7.4, 100 µM) is “more soluble than PGV-1 and curcumin”. The “Solubility relative to PGV-1” value in series [1] (pH 1.0, 7.4, distilled water, observations up to 48 hours) is listed as “two times more soluble than PGV-1”. Besides, the IC50 in the series on MCF-7/HER2 cells was 5 µM; with T47D cells it was 7 µM; with HCC1954 cells, 6 µM; in the series on NIH-3T3 cells it was greater than 50 µM; with WiDr cells, 5 µM; in the series on MCF-7/EV cells, 8 µM. The IC50 in the series with MCF-7 cells [2] was less than 10 µM; in the series with Caco2 cells it was 5 µM; in the series on 4T1 cells [3], 3 µM; in the series on K562 cells [4] (Homo sapiens, K562, 24 hours treatment, read-out: IC 50 value), 0.293 µM; in [5] it was less than 10 µM. Moreover, the “Cytotoxic potency relative to PGV-1” value with K562 cells [4] (K562) is “twice stronger than PGV-1”.

Regarding `Cc1cc(C=C2CCC(=Cc3cc(C)c(O)c(C)c3)C2=O)cc(C)c1O` [PGV-1, 2,5-bis(4-hydroxy-3,5-dimethylbenzylidene)cyclopentanone], the IC50 in the series with MCF-7 cells [6] was 6 µM; with K562 cells [7], 0.45 µM; with MCF-7/HER2 cells, 7 µM; in the series with T47D cells, 8 µM; in the series on HCC1954 cells it was 3 µM; in the series on NIH-3T3 cells, greater than 50 µM. In addition, the IC50 with WiDr cells was greater than 10 µM; in the series on MCF-7/EV cells, 8 µM; in the series with Caco2 cells it was 12 µM; with 4T1 cells [8], 4 µM; in [5], less than 10 µM. Besides, in series [1] (50 µM (data not shown)), the “Appearance of solution at 50 µM” value is reported as “appeared clear”. In series [1], the “Appearance of solution after storage for 48 hours” value was “appeared with some sediment or crystal”. In addition, the “Absorbance change” value in series [1] was “tended to decrease the absorbance at 3 hours”.

In general, Solubility refers to how much of the substance goes into solution per volume. As for `COc1cc(C=CC(=O)CC(=O)C=Cc2ccc(O)c(OC)c2)ccc1O` [curcumin, 1,7-bis(4-hydroxy-3-methoxyphenyl)-1,6-heptadiene-3,5-dione], in series [1], the “Absorbance change” value was “tended to decrease the absorbance at 3 hours”. Moreover, the Solubility in series [9] is 40 µM (≈ 14.7 µg/mL).

(Values after paper PMC9348534 (Advanced Pharmaceutical Bulletin, 2021).)
